Test results reported in publication PMC10870114 (Clinical Cancer Research, 2023).

Tested on: patients with locally advanced rectal cancer
Experiment: Treatment-emergent adverse events
Type: in vivo, human
[1] = peposertib 100 mg + RT + capecitabine, n = 6
[2] = peposertib 150 mg + RT + capecitabine, n = 6
[3] = peposertib 250 mg + RT + capecitabine, n = 6

COc1ccc([C@@H](O)c2cc(-c3ncnc4cc(N5CCOCC5)ccc34)c(F)cc2Cl)nn1 [Peposertib]
Patients with any TEAE leading to study discontinuation (peposertib 50 mg + RT + capecitabine, n = 1): 0 n (%) | Patients with any Capecitabine-related TEAE [1]: 6 (100) n (%) | Patients with any Capecitabine-related grade ≥3 TEAE [1]: 2 (33) n (%) | Patients with any Capecitabine-related grade ≥4 TEAE [1]: 2 (33) n (%) | Patients with any Capecitabine-related serious TEAE [1]: 2 (33) n (%) | Patients with any Grade ≥3 TEAE [1]: 4 (67) n (%) | Patients with any Grade ≥4 TEAE [1]: 2 (33) n (%) | Patients with any Peposertib-related TEAE [1]: 5 (83) n (%) | Patients with any Peposertib-related grade ≥ 3TEAE [1]: 3 (50) n (%) | Patients with any Peposertib-related grade ≥4 TEAE [1]: 2 (33) n (%) | Patients with any Peposertib-related serious TEAE [1]: 2 (33) n (%) | Patients with any RT-related TEAE [1]: 6 (100) n (%) | Patients with any RT-related grade ≥3 TEAE [1]: 2 (33) n (%) | Patients with any RT-related grade ≥4 TEAE [1]: 1 (17) n (%) | Patients with any RT-related serious TEAE [1]: 2 (33) n (%) | Patients with any Serious TEAE [1]: 3 (50) n (%) | Patients with any TEAE [1]: 6 (100) n (%) | Patients with any TEAE leading to death [1]: 0 n (%) | Patients with any TEAE leading to permanent discontinuation of RT [1]: 0 (0) n (%) | Patients with any TEAE leading to permanent discontinuation of capecitabine [1]: 0 (0) n (%) | Patients with any TEAE leading to permanent discontinuation of peposertib [1]: 0 (0) n (%) | Patients with any TEAE leading to study discontinuation [1]: 0 n (%) | Patients with any Capecitabine-related TEAE [2]: 6 (100) n (%) | Patients with any Capecitabine-related grade ≥3 TEAE [2]: 2 (33) n (%) | Patients with any Capecitabine-related grade ≥4 TEAE [2]: 1 (17) n (%) | Patients with any Capecitabine-related serious TEAE [2]: 0 n (%) | Patients with any Grade ≥3 TEAE [2]: 4 (67) n (%) | Patients with any Grade ≥4 TEAE [2]: 1 (17) n (%) | Patients with any Peposertib-related TEAE [2]: 5 (83.3) n (%) | Patients with any Peposertib-related grade ≥ 3TEAE [2]: 4 (67) n (%) | Patients with any Peposertib-related grade ≥4 TEAE [2]: 1 (17) n (%) | Patients with any Peposertib-related serious TEAE [2]: 0 n (%) | Patients with any RT-related TEAE [2]: 6 (100) n (%) | Patients with any RT-related grade ≥3 TEAE [2]: 2 (33) n (%) | Patients with any RT-related grade ≥4 TEAE [2]: 1 (17) n (%) | Patients with any RT-related serious TEAE [2]: 0 n (%) | Patients with any Serious TEAE [2]: 0 n (%) | Patients with any TEAE [2]: 6 (100) n (%) | Patients with any TEAE leading to death [2]: 0 n (%) | Patients with any TEAE leading to permanent discontinuation of RT [2]: 1 (17) n (%) | Patients with any TEAE leading to permanent discontinuation of capecitabine [2]: 1 (17) n (%) | Patients with any TEAE leading to permanent discontinuation of peposertib [2]: 1 (17) n (%) | Patients with any TEAE leading to study discontinuation [2]: 0 n (%) | Patients with any Capecitabine-related TEAE [3]: 6 (100) n (%) | Patients with any Capecitabine-related grade ≥3 TEAE [3]: 6 (100) n (%) | Patients with any Capecitabine-related grade ≥4 TEAE [3]: 2 (33) n (%) | Patients with any Capecitabine-related serious TEAE [3]: 3 (50) n (%) | Patients with any Grade ≥3 TEAE [3]: 6 (100) n (%) | Patients with any Grade ≥4 TEAE [3]: 2 (33) n (%) | Patients with any Peposertib-related TEAE [3]: 6 (100) n (%) | Patients with any Peposertib-related grade ≥ 3TEAE [3]: 6 (100) n (%) | Patients with any Peposertib-related grade ≥4 TEAE [3]: 2 (33) n (%) | Patients with any Peposertib-related serious TEAE [3]: 4 (67) n (%) | Patients with any RT-related TEAE [3]: 6 (100) n (%) | Patients with any RT-related grade ≥3 TEAE [3]: 5 (83.3) n (%) | Patients with any RT-related grade ≥4 TEAE [3]: 2 (33) n (%) | Patients with any RT-related serious TEAE [3]: 3 (50) n (%) | Patients with any Serious TEAE [3]: 4 (67) n (%) | Patients with any TEAE [3]: 6 (100) n (%) | Patients with any TEAE leading to death [3]: 0 n (%) | Patients with any TEAE leading to permanent discontinuation of RT [3]: 1 (17) n (%) | Patients with any TEAE leading to permanent discontinuation of capecitabine [3]: 2 (33) n (%) | Patients with any TEAE leading to permanent discontinuation of peposertib [3]: 3 (50) n (%) | Patients with any TEAE leading to study discontinuation [3]: 0 n (%)
